Data taken from patent publication US4864018A, “Anthraquinone derivatives and their use as protein absorbents” (Imperial Chemical Industries PLC, priority 1985, dated 1989).

Each compound was assayed against T1, horse liver alcohol dehydrogenase (Equus caballus, UniProt P00327) (assay: affinity of binding with horse liver alcohol dehydrogenase: reduction in rate of enzyme de-activation by CI Reactive Blue 4 in competition with dye). Conditions: carboxylate (i), (ii), (iii) versus sulphonate (iv), (v), (vi) respectively.
T1 construct: from tissue; host or cells: horse liver
T1 sequence (P00327 2-375 limits assumed): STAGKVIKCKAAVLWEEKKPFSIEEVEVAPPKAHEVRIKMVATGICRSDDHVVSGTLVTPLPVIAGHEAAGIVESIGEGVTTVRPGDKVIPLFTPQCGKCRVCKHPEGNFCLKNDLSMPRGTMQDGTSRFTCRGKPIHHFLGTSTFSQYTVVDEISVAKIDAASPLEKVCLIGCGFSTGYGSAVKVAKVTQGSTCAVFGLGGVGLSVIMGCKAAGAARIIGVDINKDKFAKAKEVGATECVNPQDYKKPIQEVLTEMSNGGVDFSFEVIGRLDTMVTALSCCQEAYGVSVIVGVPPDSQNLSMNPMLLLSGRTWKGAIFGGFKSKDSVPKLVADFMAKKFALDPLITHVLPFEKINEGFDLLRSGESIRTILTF
Procedure: Three dyes of Formula I, in which the COOH group on Ring A is in the ortho (o), meta (m) and para (p) positions respectively, (i), (ii) and (iii) in Table 2, and three analogues in which the COOH groups are replaced by SO3 H groups, (iv), (v) and (vi) in Table 2, were assessed by affinity of binding with horse liver alcohol dehydrogenase. The assessment procedure comprised measuring the reduction in rate of enzyme de-activation by CI Reactive Blue 4 (a highly reactive, dichlorotriazine dye which rapidly deactivates horse liver alcohol dehydrogenase) when of dyes (i) to (vi) was allowed to compete with CI Reactive Blue 4 for the enzyme. From the reductions in rate observed the dissociation constants, KD, of the [enzyme-dye] combinations were calculated and these values are listed in Table 2.

Row | binding affinity compared with the corresponding sulphonate analogue | Compound
1 | markedly and surprisingly higher | Nc1c(S(=O)(=O)O)cc(Nc2ccc(Nc3nc(Cl)nc(Nc4ccccc4C(=O)O)n3)c(S(=O)(=O)O)c2)c2c1C(=O)c1ccccc1C2=O [(i)]
2 | markedly and surprisingly higher | Nc1c(S(=O)(=O)O)cc(Nc2ccc(Nc3nc(Cl)nc(Nc4cccc(C(=O)O)c4)n3)c(S(=O)(=O)O)c2)c2c1C(=O)c1ccccc1C2=O [(ii)]
3 | markedly and surprisingly higher | Nc1c(S(=O)(=O)O)cc(Nc2ccc(Nc3nc(Cl)nc(Nc4ccc(C(=O)O)cc4)n3)c(S(=O)(=O)O)c2)c2c1C(=O)c1ccccc1C2=O [(iii)]
